Molecular target: T1, human c-Met (Homo sapiens, UniProt P08581)
T1 construct: Recombinant GST-tagged cytosolic domains of human c-Met; 6xHis; made in house; host or cells: Sf9 or Sf21 insect cells (baculovirus)
Experiment: in vitro kinase assay (homogeneous time-resolved tyrosine kinase assay, METKA)
Format: biochemical
Settings: recombinant GST-tagged c-Met cytosolic domain, HTRF, 50 μM MgATP; read-out: Biological Activity (METKA IC50) Activity Code
Summary of the method: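 HTRF assay with GST-tagged cytosolic c-Met domain (0.2 nM), 0.5 μM biotinylated peptide, 50 μM MgATP, pH 7.4, 5% DMSO, 80 min at room temperature; Eu-anti-pTyr/SA-APC detection, IC50 by 4-parameter fit. Other kinases identical except enzyme level: mouse c-Met 0.2, Ron 2.5, KDR 8, IGFR 0.24, EGFR 0.24, FGFR 0.14, Mer 16, TrkA 8, Tie2 8 nM.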

T1 sequence (P08581 956-1390 limits assumed): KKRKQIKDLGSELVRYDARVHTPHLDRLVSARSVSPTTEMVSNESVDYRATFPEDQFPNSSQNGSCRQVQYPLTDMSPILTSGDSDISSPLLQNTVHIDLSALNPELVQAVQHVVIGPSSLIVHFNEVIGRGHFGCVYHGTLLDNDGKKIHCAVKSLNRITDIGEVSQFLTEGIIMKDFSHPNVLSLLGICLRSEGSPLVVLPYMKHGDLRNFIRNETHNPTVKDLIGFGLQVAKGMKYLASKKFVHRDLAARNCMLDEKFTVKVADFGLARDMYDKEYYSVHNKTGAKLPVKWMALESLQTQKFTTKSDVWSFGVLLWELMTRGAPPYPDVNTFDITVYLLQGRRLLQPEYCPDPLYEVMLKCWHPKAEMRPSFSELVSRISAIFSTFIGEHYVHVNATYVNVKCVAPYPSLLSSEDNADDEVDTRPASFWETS

Q: `Cn1cc(-n2ccc(=O)c(CCc3ccnc4[nH]ccc34)n2)cn1` [Example 55, 1-(1-methyl-1H-pyrazol-4-yl)-3-[2-(1H-pyrrolo[2,3-b]pyridin-4-yl)ethyl]pyridazin-4(1H)-one] was tested. Which IC50 did it give?
A: Its IC50 is 1000 to 3000 nM.

Q: Which IC50 does the source give for `COCCOc1cnc2ccc(OCc3nn(-c4ccc(F)c(F)c4)ccc3=O)cc2c1` [Example 30, 1-(3,4-difluorophenyl)-3-({[3-(2-methoxyethoxy)quinolin-6-yl]oxy}methyl)pyridazin-4(1H)-one] here?
A: The IC50 was less than 100 nM.

Q: `Cn1cc(-n2ccc(=O)c(COc3ccc(N)cc3)n2)cn1` [Example 115, 3-((4-aminophenoxy)methyl)-1-(1-methyl-1H-pyrazol-4-yl)pyridazin-4(1H)-one] was tested. Which IC50 did it give?
A: The IC50 was 100 to 1000 nM.

Q: How did the IC50 turn out when `COCCOc1cnc2ccc(OCc3nn(-c4cccc(C(=O)N(C)C)c4)ccc3=O)cc2c1` [Example 52, 3-[3-({[3-(2-methoxyethoxy)quinolin-6-yl]oxy}methyl)-4-oxopyridazin-1(4H)-yl]-N,N-dimethylbenzamide] was run?
A: Its IC50 is 1000 to 3000 nM.

Q: For `O=c1ccn(-c2cc(F)cc(F)c2)nc1COc1ccc2ncccc2c1` [Example 7, 1-(3,5-difluorophenyl)-3-[(quinolin-6-yloxy)methyl] pyridazin-4(1H)-one], which IC50 is on record?
A: Its IC50 is less than 100 nM.

Q: For `COCCOc1cnc2ccc(C(C)Oc3nn(-c4cnn(C)c4)ccc3=O)cc2c1` (single isomer, unassigned) [Example 144, 3-{1-[3-(2-methoxyethoxy)quinolin-6-yl]ethoxy}-1-(1-methyl-1H-pyrazol-4-yl)pyridazin-4(1H)-one], which IC50 is on record?
A: Its IC50 is 100 to 1000 nM.

Q: With `CCn1cc(-n2ccc(=O)c(COc3ccc4ncc(-c5cccc(F)c5)cc4c3)n2)cn1` [Example 90, 1-(1-ethyl-1H-pyrazol-4-yl)-3-({[3-(3-fluorophenyl)quinolin-6-yl]oxy}methyl)pyridazin-4(1H)-one] as the compound, how does the IC50 read?
A: Its IC50 is less than 100 nM.

Q: Which IC50 does the source give for `COC(=O)C(Cc1nn(-c2cnn(C)c2)ccc1=O)c1ccc2ncccc2c1` (centres unmarked) [Example 150, Methyl 3-[1-(1-methyl-1H-pyrazol-4-yl)-4-oxo-1,4-dihydropyridazin-3-yl]-2-(quinolin-6-yl)propanoate] here?
A: Its IC50 is 1000 to 3000 nM.

Q: For `CC(Oc1nn(-c2cnn(C)c2)ccc1=O)c1ccc2ncccc2c1` (single isomer, unassigned) [Example 138, 1-(1-methyl-1H-pyrazol-4-yl)-3-(1-quinolin-6-ylethoxy)pyridazin-4(1H)-one], which IC50 is on record?
A: Its IC50 is 100 to 1000 nM.

Q: `CCn1cc(-n2ccc(=O)c(OC(C)c3ccc4nccc(OC)c4c3)n2)cn1` (centres unmarked) [Example 132, 1-(1-ethyl-1H-pyrazol-4-yl)-3-[1-(4-methoxyquinolin-6-yl)ethoxy]pyridazin-4(1H)-one] was tested. Which IC50 did it give?
A: The IC50 was less than 100 nM.

Q: `Cn1cc(-n2ccc(=O)c(CCc3ccnc4ccccc34)n2)cn1` [Example 54, 1-(1-methyl-1H-pyrazol-4-yl)-3-(2-quinolin-4-ylethyl)pyridazin-4(1H)-one] was tested. Which IC50 did it give?
A: The IC50 was 1000 to 3000 nM.

Q: For `N#Cc1cccc(-n2ccc(=O)c(COc3ccc4ncccc4c3)n2)c1` [Example 3, 3-{4-oxo-3-[(quinolin-6-yloxy)methyl]pyridazin-1(4H)-yl}benzonitrile], which IC50 is on record?
A: Its IC50 is less than 100 nM.

Q: With `CC(Cc1nn(-c2cnn(C)c2)ccc1=O)c1ccc2ncccc2c1` (single isomer, unassigned) [Example 126, 1-(1-methyl-1H-pyrazol-4-yl)-3-(2-quinolin-6-ylpropyl)pyridazin-4(1H)-one] as the compound, how does the IC50 read?
A: Its IC50 is 100 to 1000 nM.

Q: For `Cn1cc(-n2ccc(=O)c(COc3ccc4nccnc4c3)n2)cn1` [Example 11, 1-(1-methyl-1H-pyrazol-4-yl)-3-[(quinoxalin-6-yloxy)methyl] pyridazin-4(1H)-one], which IC50 is on record?
A: The IC50 was less than 100 nM.

Q: For `COc1ccnc2ccc(COc3nn(-c4cnn(C)c4)ccc3=O)cc12` [Example 137, 3-[(4-methoxyquinolin-6-yl)methoxy]-1-(1-methyl-1H-pyrazol-4-yl)pyridazin-4(1H)-one], which IC50 is on record?
A: Its IC50 is 1000 to 3000 nM.

Q: With `COCc1cn(-c2cnc3ccc(OCc4nn(-c5cnn(C)c5)ccc4=O)cc3c2)nn1` [Example 40, 3-[({3-[4-(methoxymethyl)-1H-1,2,3-triazol-1-yl]quinolin-6-yl}oxy)methyl]-1-(1-methyl-1H-pyrazol-4-yl)pyridazin-4(1H)-one] as the compound, how does the IC50 read?
A: Its IC50 is less than 100 nM.

Q: How did the IC50 turn out when `COCCOc1cnc2ccc(OCc3nn(-c4cc(F)cc(F)c4)ccc3=O)cc2c1` [Example 31, 1-(3,5-difluorophenyl)-3-({[3-(2-methoxyethoxy)quinolin-6-yl]oxy}methyl)pyridazin-4(1H)-one] was run?
A: The IC50 was less than 100 nM.

Q: For `COCCOc1cnc2ccc(OCc3nn(-c4cnn(C)c4)ccc3=O)cc2n1` [Example 106, 3-({[3-(2-methoxyethoxy)quinoxalin-6-yl]oxy}methyl)-1-(1-methyl-1H-pyrazol-4-yl)pyridazin-4(1H)-one], which IC50 is on record?
A: The IC50 was less than 100 nM.

Q: For `COCCOc1ccnc2ccc(OCc3nn(-c4cnn(C)c4)ccc3=O)cc12` [Example 34, 3-({[4-(2-methoxyethoxy)quinolin-6-yl]oxy}methyl)-1-(1-methyl-1H-pyrazol-4-yl)pyridazin-4(1H)-one], which IC50 is on record?
A: Its IC50 is 100 to 1000 nM.

Q: Which IC50 does the source give for `NC(=O)c1cccc(-n2ccc(=O)c(COc3ccc4ncccc4c3)n2)c1` [Example 51, 3-{4-Oxo-3-[(quinolin-6-yloxy)methyl]pyridazin-1(4H)-yl}benzamide] here?
A: Its IC50 is less than 100 nM.

Q: `CCOC(=O)c1ccc(OCc2nn(-c3cnn(C)c3)ccc2=O)cc1` [Example 12, ethyl 4-{[1-(1-methyl-1H-pyrazol-4-yl)-4-oxo-1,4-dihydropyridazin-3-yl]methoxy}benzoate] was tested. Which IC50 did it give?
A: The IC50 was 100 to 1000 nM.

Q: With `Cn1cc(-n2ccc(=O)c(COc3ccc4nc(C#N)sc4c3)n2)cn1` [Example 14, 6-{[1-(1-methyl-1H-pyrazol-4-yl)-4-oxo-1,4-dihydropyridazin-3-yl]methoxy}-1,3-benzothiazole-2-carbonitrile] as the compound, how does the IC50 read?
A: The IC50 was 1000 to 3000 nM.

Q: With `CC(Oc1nn(-c2cnn(C)c2)ccc1=O)c1ccc2ncccc2c1` (centres unmarked) [Example 130, 1-(1-methyl-1H-pyrazol-4-yl)-3-(1-quinolin-6-ylethoxy)pyridazin-4(1H)-one] as the compound, how does the IC50 read?
A: Its IC50 is 100 to 1000 nM.

Q: How did the IC50 turn out when `Cn1cc(-n2ccc(=O)c(COc3ccc4ncc(-n5cc(COC6CCNCC6)nn5)cc4c3)n2)cn1` [Example 41, 1-(1-methyl-1H-pyrazol-4-yl)-3-{[(3-{4-[(piperidin-4-yloxy)methyl]-1H-1,2,3-triazol-1-yl}quinolin-6-yl)oxy]methyl}pyridazin-4(1H)-one] was run?
A: Its IC50 is 100 to 1000 nM.

Q: With `CCOc1cnc2ccc(CCc3nn(-c4cnn(C)c4)ccc3=O)cc2c1` [Example 58, 3-[2-(3-ethoxyquinolin-6-yl)ethyl]-1-(1-methyl-1H-pyrazol-4-yl)pyridazin-4(1H)-one] as the compound, how does the IC50 read?
A: Its IC50 is less than 100 nM.

Q: Which IC50 does the source give for `O=c1ccn(-c2cc(F)c(F)c(F)c2)nc1COc1ccc2ncccc2c1` [Example 10, 3-[(quinolin-6-yloxy)methyl]-1-(3,4,5-trifluorophenyl) pyridazin-4(1H)-one] here?
A: The IC50 was less than 100 nM.

Q: How did the IC50 turn out when `CC(Cc1nn(-c2cnn(C)c2)ccc1=O)c1ccc2ncccc2c1` (single isomer, unassigned) [Example 125, 1-(1-methyl-1H-pyrazol-4-yl)-3-(2-quinolin-6-ylpropyl)pyridazin-4(1H)-one] was run?
A: Its IC50 is less than 100 nM.

Q: For `CC(Oc1ccc2ncccc2c1)c1nn(-c2cccc(Br)c2)ccc1=O` (single isomer, unassigned) [Example 113, 1-(3-bromophenyl)-3-[1-(quinolin-6-yloxy)ethyl]pyridazin-4(1H)-one], which IC50 is on record?
A: Its IC50 is 1000 to 3000 nM.

Q: For `Cn1cc(-n2ccc(=O)c(CSc3ccc4ncccc4c3)n2)cn1` [Example 101, 1-(1-Methyl-1H-pyrazol-4-yl)-3-[(quinolin-6-ylsulfanyl)methyl]pyridazin-4(1H)-one], which IC50 is on record?
A: Its IC50 is less than 100 nM.

Q: For `CCn1cc(-n2ccc(=O)c(COc3ccc4ncccc4c3)n2)cn1` [Example 22, 1-(1-ethyl-1H-pyrazol-4-yl)-3-[(quinolin-6-yloxy)methyl] pyridazin-1(4H)-one], which IC50 is on record?
A: The IC50 was less than 100 nM.

Q: For `COc1cnc2ccc(C(C)Oc3nn(-c4cnn(C)c4)ccc3=O)cc2c1` (single isomer, unassigned) [Example 140, 3-[1-(3-methoxyquinolin-6-yl)ethoxy]-1-(1-methyl-1H-pyrazol-4-yl)pyridazin-4(1H)-one], which IC50 is on record?
A: Its IC50 is less than 100 nM.

Q: Which IC50 does the source give for `CCOc1cnc2ccc(SCc3nn(-c4cnn(C)c4)ccc3=O)cc2c1` [Example 100, 3-{[(3-ethoxyquinolin-6-yl)sulfanyl]methyl}-1-(1-methyl-1H-pyrazol-4-yl)pyridazin-4(1H)-one] here?
A: The IC50 was less than 100 nM.

— patent US20130116231A1, “TYROSINE KINASE INHIBITORS” (Merck Sharp & Dohme Corp., priority 2010, published 2013)
